Results from patent publication US10273226B2, “Pyrazolyl-heteroarylamides as pesticides” (Bayer Animal Health GmbH, priority 2014, dated 2019).

The compounds below were run on Boophilus microplus (assay: Boophilus microplus injection test). Settings: application rate 20 μg/animal; injection into abdomen; assessed after 7 days.
Type: in vivo
Description: Boophilus microplus—Injection Test
(§1) Solvent: dimethyl sulphoxide
To produce an appropriate active ingredient formulation, 10 mg of active ingredient are mixed with 0.5 ml of solvent and the concentrate is diluted with solvent to the desired concentration.
1 μl of the active ingredient solution is injected into the abdomen of 5 engorged adult female cattle ticks (Boophilus microplus). The animals are transferred into dishes and kept in a climate-controlled room.
Efficacy is assessed after 7 days by laying of fertile eggs. Eggs which are not visibly fertile are stored in a climate-controlled cabinet until the larvae hatch after about 42 days. An efficacy of 100% means that none of the ticks has laid any fertile eggs; 0% means that all the eggs are fertile.
With `CCOCC(C)(C)C(=O)Nc1cc(-c2cnn(-c3c(C(F)(F)F)c(C(F)(F)C(F)(F)F)nn3C)c2)ccc1F` [Example 1-082] the “efficacy (laying of fertile eggs)” value was 100%. With `Cn1nc(C(F)(F)C(F)(F)F)c(C(F)(F)F)c1-n1cc(-c2ccc(F)c(NC(=O)c3ccccc3OC(F)(F)F)c2)cn1` [Example 1-074] the “efficacy (laying of fertile eggs)” value was 90%. In the case of `Cn1nc(C(F)(F)C(F)(F)F)c(C(F)(F)F)c1-n1cc(-c2cccc(NC(=O)c3ncccc3Cl)c2)cn1` [Example 1-005], the “efficacy (laying of fertile eggs)” value is reported as 100%. In the case of `Cn1nc(C(F)(F)C(F)(F)F)c(C(F)(F)F)c1-n1cc(-c2ccc(F)c(NC(=O)c3ccc(F)c(C(F)(F)F)c3)c2)cn1` [Example 1-050], the “efficacy (laying of fertile eggs)” value is reported as 100%. `Cn1nc(C(F)(F)C(F)(F)F)c(C(F)(F)F)c1-n1cc(-c2ccc(F)c(NC(=O)C(c3ccccc3)C3CCCC3)c2)cn1` (racemic) [Example 1-109] was tested, and the “efficacy (laying of fertile eggs)” value was 80%. For `Cn1nc(C(F)(F)C(F)(F)F)c(C(F)(F)F)c1-n1cc(-c2ccc(F)c(NC(=O)c3cccc(C(F)(F)F)c3)c2)cn1` [Example 1-057], the “efficacy (laying of fertile eggs)” value was 100%. With `Cc1cc(C(F)F)n2nc(C(=O)Nc3cc(-c4cnn(-c5c(C(F)(F)F)c(C(F)(F)C(F)(F)F)nn5C)c4)ccc3F)nc2n1` [Example 1-062] the “efficacy (laying of fertile eggs)” value was 100%. `Cn1nc(C(F)(F)C(F)(F)F)c(C(F)(F)F)c1-n1cc(-c2ccc(F)c(NC(=O)C3(c4ccc(Cl)cc4)CCC3)c2)cn1` [Example 1-115] was tested, and the “efficacy (laying of fertile eggs)” value was 100%. In the case of `Cc1ccc(C2(C(=O)Nc3cc(-c4cnn(-c5c(C(F)(F)F)c(C(F)(F)C(F)(F)F)nn5C)c4)ccc3F)CCCCC2)cc1` [Example 1-111], the “efficacy (laying of fertile eggs)” value is reported as 80%. In the case of `Cn1nc(C(F)(F)C(F)(F)F)c(C(F)(F)F)c1-n1cc(-c2ccc(F)c(NC(=O)Cc3cccc(C(F)(F)F)c3)c2)cn1` [Example 1-116], the “efficacy (laying of fertile eggs)” value is reported as 100%. With `Cn1nc(C(F)(F)C(F)(F)F)c(C(F)(F)F)c1-n1cc(-c2cnc(Cl)c(NC(=O)c3ncccc3Cl)c2)cn1` [Example 2-002] the “efficacy (laying of fertile eggs)” value was 100%. In the case of `Cn1nc(C(F)(F)C(F)(F)F)c(C(F)(F)F)c1-n1cc(-c2ccc(F)c(NC(=O)CCc3ccccc3)c2)cn1` [Example 1-125], the “efficacy (laying of fertile eggs)” value is reported as 100%. In the case of `CCC(C(=O)Nc1cc(-c2cnn(-c3c(C(F)(F)F)c(C(F)(F)C(F)(F)F)nn3C)c2)ccc1F)c1ccccc1` (racemic) [Example 1-124], the “efficacy (laying of fertile eggs)” value is reported as 100%.

These compounds were tested on Ctenocephalides felis (assay: Ctenocephalides felis oral test). Settings: application rate 100 ppm in citrated cattle blood; after 2 days.
Type: in vivo
Description: Ctenocephalides felis—Oral Test
as §1
For the purpose of producing an appropriate active ingredient formulation, 10 mg of active ingredient are mixed with 0.5 ml of dimethyl sulphoxide. Dilution with citrated cattle blood gives the desired concentration.
About 20 unfed adult cat fleas (Ctenocephalides felis) are placed into a chamber which is closed at the top and bottom with gauze. A metal cylinder whose bottom end is closed with parafilm is placed onto the chamber. The cylinder contains the blood/active ingredient preparation, which can be imbibed by the fleas through the parafilm membrane.
After 2 days, the kill in % is determined. 100% means that all of the fleas have been killed; 0% means that none of the fleas have been killed.
In the case of `CCOCC(C)(C)C(=O)Nc1cc(-c2cnn(-c3c(C(F)(F)F)c(C(F)(F)C(F)(F)F)nn3C)c2)ccc1F` [Example 1-082], the “efficacy (kill in %)” value is reported as 90%. In the case of `Cn1nc(C(F)(F)C(F)(F)F)c(C(F)(F)F)c1-n1cc(-c2cccc(NC(=O)c3ncccc3Cl)c2)cn1` [Example 1-005], the “efficacy (kill in %)” value is reported as 100%. For `Cn1nc(C(F)(F)C(F)(F)F)c(C(F)(F)F)c1-n1cc(-c2ccc(F)c(NC(=O)c3cccc(C(F)(F)F)c3)c2)cn1` [Example 1-057], the “efficacy (kill in %)” value was 95%. In the case of `Cc1cc(C(F)F)n2nc(C(=O)Nc3cc(-c4cnn(-c5c(C(F)(F)F)c(C(F)(F)C(F)(F)F)nn5C)c4)ccc3F)nc2n1` [Example 1-062], the “efficacy (kill in %)” value is reported as 100%. For `Cn1nc(C(F)(F)C(F)(F)F)c(C(F)(F)F)c1-n1cc(-c2ccc(Cl)c(NC(=O)c3ncccc3Cl)c2)cn1` [Example 1-021], the “efficacy (kill in %)” value was 80%. With `Cn1nc(C(F)(F)C(F)(F)F)c(C(F)(F)F)c1-n1cc(-c2ccc(F)c(NC(=O)C3(c4ccc(Cl)cc4)CCC3)c2)cn1` [Example 1-115] the “efficacy (kill in %)” value was 90%. In the case of `Cn1nc(C(F)(F)C(F)(F)F)c(C(F)(F)F)c1-n1cc(-c2ccc(F)c(NC(=O)Cc3cccc(C(F)(F)F)c3)c2)cn1` [Example 1-116], the “efficacy (kill in %)” value is reported as 100%.

These compounds were tested on Lucilia cuprina (assay: Lucilia cuprina test). Settings: application rate 100 ppm; L1 larvae; after 2 days.
Type: in vivo
Description: as §1
To produce an appropriate active ingredient formulation, 10 mg of active ingredient are mixed with 0.5 ml of dimethyl sulphoxide, and the concentrate is diluted with water to the desired concentration.
About 20 L1 larvae of the Australian sheep blowfly (Lucilia cuprina) are transferred into a test vessel containing minced horsemeat and the active ingredient preparation of the desired concentration.
After 2 days, the kill in % is determined. 100% means that all the larvae have been killed and 0% means that none of the larvae have been killed.
In the case of `Cn1nc(C(F)(F)C(F)(F)F)c(C(F)(F)F)c1-n1cc(-c2cccc(NC(=O)c3ncccc3Cl)c2)cn1` [Example 1-005], the “efficacy (kill in %)” value is reported as 100%. `Cn1nc(C(F)(F)C(F)(F)F)c(C(F)(F)F)c1-n1cc(-c2ccc(F)c(NC(=O)c3ccc(F)c(C(F)(F)F)c3)c2)cn1` [Example 1-050] was tested, and the “efficacy (kill in %)” value was 100%. In the case of `Cn1nc(C(F)(F)C(F)(F)F)c(C(F)(F)F)c1-n1cc(-c2ccc(F)c(NC(=O)c3cccc(C(F)(F)F)c3)c2)cn1` [Example 1-057], the “efficacy (kill in %)” value is reported as 100%. For `Cc1cc(C(F)F)n2nc(C(=O)Nc3cc(-c4cnn(-c5c(C(F)(F)F)c(C(F)(F)C(F)(F)F)nn5C)c4)ccc3F)nc2n1` [Example 1-062], the “efficacy (kill in %)” value was 100%. In the case of `Cn1nc(C(F)(F)C(F)(F)F)c(C(F)(F)F)c1-n1cc(-c2ccc(F)c(NC(=O)C3(c4ccc(Cl)cc4)CCC3)c2)cn1` [Example 1-115], the “efficacy (kill in %)” value is reported as 80%. With `Cn1nc(C(F)(F)C(F)(F)F)c(C(F)(F)F)c1-n1cc(-c2ccc(F)c(NC(=O)Cc3cccc(C(F)(F)F)c3)c2)cn1` [Example 1-116] the “efficacy (kill in %)” value was 100%.

The compounds below were run on Phaedon cochleariae (assay: Phaedon cochleariae spray test). Settings: application rate 100 g/ha; larvae; after 7 days.
Type: in vivo
Description: Phaedon cochleariae—Spray Test
(§2) To produce an appropriate active ingredient formulation, 1 part by weight of active ingredient is dissolved using the specified parts by weight of solvent and made up with water containing an emulsifier concentration of 1000 ppm until the desired concentration is attained. To produce further test concentrations, the preparation is diluted with emulsifier-containing water.
Discs of Chinese cabbage leaves (Brassica pekinensis) are sprayed with an active ingredient formulation of the desired concentration and, after drying, populated with larvae of the mustard beetle (Phaedon cochleariae).
After 7 days, efficacy in % is determined. 100% means that all the beetle larvae have been killed; 0% means that no beetle larvae have been killed.
`Cn1nc(C(F)(F)C(F)(F)F)c(C(F)(F)F)c1-n1cc(-c2cccc(NC(=O)c3ncccc3Cl)c2)cn1` [Example 1-005] showed an efficacy of 100%. Work on `Cn1nc(C(F)(F)C(F)(F)F)c(C(F)(F)F)c1-n1cc(-c2ccc(F)c(NC(=O)c3ccc(F)c(C(F)(F)F)c3)c2)cn1` [Example 1-050] yielded an efficacy of 100%. `Cn1nc(C(F)(F)C(F)(F)F)c(C(F)(F)F)c1-n1cc(-c2ccc(F)c(NC(=O)Cc3cccc(C(F)(F)F)c3)c2)cn1` [Example 1-116] gave an efficacy of 100%.

The compounds below were run on Spodoptera frugiperda (assay: Spodoptera frugiperda spray test). Settings: application rate 100 g/ha; caterpillars; after 7 days.
Type: in vivo
Description: Spodoptera frugiperda—Spray Test
as §2
Leaf discs of maize (Zea mays) are sprayed with an active ingredient formulation of the desired concentration and, after drying, populated with caterpillars of the armyworm (Spodoptera frugiperda).
After 7 days, efficacy in % is determined. 100% means that all the caterpillars have been killed; 0% means that no caterpillars have been killed.
`Cn1nc(C(F)(F)C(F)(F)F)c(C(F)(F)F)c1-n1cc(-c2cccc(NC(=O)c3ncccc3Cl)c2)cn1` [Example 1-005] showed an efficacy of 100%. In the case of `Cn1nc(C(F)(F)C(F)(F)F)c(C(F)(F)F)c1-n1cc(-c2ccc(F)c(NC(=O)c3cccc(C(F)(F)F)c3)c2)cn1` [Example 1-057], the efficacy is reported as 83%. For `Cn1nc(C(F)(F)C(F)(F)F)c(C(F)(F)F)c1-n1cc(-c2ccc(F)c(NC(=O)Cc3cccc(C(F)(F)F)c3)c2)cn1` [Example 1-116], the efficacy was 83%.

What follows are compounds tested on Tetranychus urticae (assay: Tetranychus urticae spray test, OP-resistant). Settings: application rate 100 g/ha; after 6 days.
Type: in vivo
Description: Tetranychus urticae—Spray Test, OP-Resistant
as §2
Discs of bean leaves (Phaseolus vulgaris) infested by all stages of the greenhouse red spider mite (Tetranychus urticae) are sprayed with an active ingredient formulation of the desired concentration.
After 6 days, efficacy in % is determined. 100% means that all the spider mites have been killed; 0% means that none of the spider mites have been killed.
`Cn1nc(C(F)(F)C(F)(F)F)c(C(F)(F)F)c1-n1cc(-c2ccc(F)c(NC(=O)C3(C)CCCCC3)c2)cn1` [Example 1-053] showed an efficacy of 100%.
